In patent US12102648B2, “Orally-bioavailable nucleoside analogs” (priority 2021, dated 2024):
Like-named read-outs stand apart in the source and are kept apart here.

Assay: in vitro
Type: in vitro ADME
Settings: human
Protocol: The bidirectional permeability of compounds across the Caco-2 cell monolayer was assessed. The Caco-2 model is a widely used in vitro model for small intestinal absorption and potential for efflux.
Cell culture. Caco-2 cells were grown in DMEM supplemented with 10% fetal bovine serum (FBS), 1% Penicillin-Streptomycin and 1% MEM NEAA. The cells were incubated at 37° C., 5% CO2/95% air and saturated humidity. After reaching 80-90% confluency, the cells were gently detached with trypsin. Cells at passage 39 were seeded on the 24-well BD insert system at the density of 8×10^4 cells/cm^2 and cultured for 19 days with medium changed every 2-3 days. Measure the transepithelial electrical resistance (TEER) value of each well. The wells can be used only when their TEER values are greater than 600 Ohms/cm^2.
Transport assay. After removing the cell culture medium from the 24-well insert plate, the cells were rinsed with warm transport buffer. Appropriate dosing and receiving solutions were applied to the donor and receiver chambers to initiate the transport assay in apical to basolateral (A to B) or basolateral to apical (B to A) directions ([…] for apical and basolateral wells, respectively). Duplicate wells in each direction were used for the test compound and control compound. The plate was incubated in CO2 incubator at 37° C., with 5% CO2/95% air and saturated humidity without shaking. The sample after 10-minute incubation was used as the T0 sample, and the sample after 90-minute incubation was used as the T90 sample. To and T90 samples were collected from the donor and receiver side of each well at the designed timepoint, mixed with the transport buffer and acetonitrile/MeOH (1:1, v/v) and the internal standard for LC/MS/MS analysis. All samples were vortexed and centrifuged at 4000 rpm at 4° C. for 15 minutes, diluted with pure water and stored at 4° C. before bioanalysis by LC/MS/MS.
Sample analysis. The concentrations of test compounds and control compounds in Caco-2 cells were quantitatively determined by LC/MS/MS method after protein precipitation.
Calculations. The apparent permeability (Papp, cm/s), efflux ratio (ER) and recovery parameters were calculated for Caco-2 drug transport assay using the following equations:
[formula] [formula] where VR is the solution volume in the receiver chamber (0.4 mL on the apical side, 1.2 mL on the basolateral side); Area is the surface area for the insert membrane, i.e., 0.3 cm^2 for the area of the monolayer; Time is incubation time, expressed in seconds, i.e., 5400 s (90 min) for the current experiment; Co is the initial concentration of test compound or peak area ratio of control compounds in the donor chamber (μM); VD is the volume in the donor chambers (0.4 mL on the apical side, 1.2 mL on the basolateral side); CD and CR are the final concentrations of test compounds or peak area ratio of control compounds in donor and receiver chambers, respectively.
Compounds with Papp<1.0 are classified as low permeability, Papp between 1-10 are classified as medium permeability, and Papp≥10 are classified as high permeability. An efflux ratio (ER)>2 indicates the compounds are potential substrates for intestinal cell efflux transporters.

[1] = Caco-2 monolayer, apical to basolateral, 90-minute incubation, read-out: Papp, A-B
[2] = Caco-2 monolayer, basolateral to apical, 90-minute incubation, read-out: Papp, B-A
[3] = Caco-2 monolayer, ER>2 indicates potential efflux transporter substrate, read-out: ER (efflux ratio)

What does the source list for N#C[C@@]1(c2ccc3c(N)ncnn23)O[C@H](COC(=O)Cc2ccccc2)[C@@H](O)[C@H]1O [Compound 12, ((2R,3S,4R,5R)-5-(4-aminopyrrolo[2,1-f][1,2,4]triazin-7-yl)-5-cyano-3,4-dihydroxytetrahydrofuran-2-yl)methyl 2-phenylacetate]?
Papp A→B at 90 min [1]: 3 ×10⁻⁶ cm/s; Papp B→A at 90 min [2]: 8.9 ×10⁻⁶ cm/s; efflux ratio at 90 min [3]: 3

What does the source list for N#C[C@@]1(c2ccc3c(N)ncnn23)O[C@H](COC(=O)CC2CCCCCC2)[C@@H](O)[C@H]1O [Compound 261, ((2R,3S,4R,5R)-5-(4-aminopyrrolo[2,1-f][1,2,4]triazin-7-yl)-5-cyano-3,4-dihydroxytetrahydrofuran-2-yl)methyl 2-cycloheptylacetate]?
Papp A→B at 90 min (Caco-2): 0.79 ×10⁻⁶ cm/s; Papp B→A at 90 min (Caco-2): 1.1 ×10⁻⁶ cm/s; efflux ratio at 90 min (Caco-2): 1.4

Which results are given for CCC(=O)OC[C@H]1O[C@@](C#N)(c2ccc3c(N)ncnn23)[C@H](O)[C@@H]1OC(=O)C(C)C [Compound 70, [(2R,3S,4R,5R)-5-{4-aminopyrrolo[2,1-f][1,2,4]triazin-7-yl}-5-cyano-4-hydroxy-3-[(2-methylpropanoyl)oxy]oxolan-2-yl]methyl propanoate]?
Papp A→B at 90 min (Caco-2): 1.8 ×10⁻⁶ cm/s; Papp B→A at 90 min (Caco-2): 1.6 ×10⁻⁶ cm/s; efflux ratio at 90 min (Caco-2): 0.82

What does the source list for CCC(=O)O[C@H]1[C@@H](O)[C@](C#N)(c2ccc3c(N)ncnn23)O[C@@H]1COC(=O)[C@@H](N)C(C)C [Compound 39, ((2R,3S,4R,5R)-5-(4-aminopyrrolo[2,1-f][1,2,4]triazin-7-yl)-5-cyano-4-hydroxy-3-(propionyloxy)tetrahydrofuran-2-yl)methyl L-valinate]?
Papp A→B at 90 min [1]: 0.23 ×10⁻⁶ cm/s; Papp B→A at 90 min [2]: 2.3 ×10⁻⁶ cm/s; efflux ratio at 90 min [3]: 10

Which Papp A→B at 90 min (Caco-2) does the source give for N#C[C@@]1(c2ccc3c(N)ncnn23)O[C@H](COC(=O)C2(c3ccccc3)CC2)[C@@H](O)[C@H]1O [Compound 289, ((2R,3S,4R,5R)-5-(4-aminopyrrolo[2,1-f][1,2,4]triazin-7-yl)-5-cyano-3,4-dihydroxytetrahydrofuran-2-yl)methyl 1-phenylcyclopropane-1-carboxylate] here?
Its Papp A→B at 90 min is 6.4 ×10⁻⁶ cm/s.

What about the Papp B→A at 90 min (Caco-2) of the same molecule?
The Papp B→A at 90 min was 25 ×10⁻⁶ cm/s.

And the efflux ratio at 90 min (Caco-2)?
The efflux ratio at 90 min was 3.8.

What does the source list for CCCCCOC(=O)Nc1ncnn2c([C@]3(C#N)O[C@H](CO)[C@@H](OC(=O)Cc4ccccc4)[C@H]3O)ccc12 [Compound 141, (2R,3S,4R,5R)-5-cyano-4-hydroxy-2-(hydroxymethyl)-5-(4-(((pentyloxy)carbonyl)amino)pyrrolo[2,1-f][1,2,4]triazin-7-yl)tetrahydrofuran-3-yl 2-phenylacetate]?
Papp A→B at 90 min [1]: 0.14 ×10⁻⁶ cm/s; Papp B→A at 90 min [2]: 0.04 ×10⁻⁶ cm/s; efflux ratio at 90 min [3]: 0.33

What does the source list for CC(C)CC(=O)O[C@H]1[C@@H](O)[C@](C#N)(c2ccc3c(N)ncnn23)O[C@@H]1COC(=O)Cc1ccccc1 [Compound 41, (2R,3S,4R,5R)-5-(4-aminopyrrolo[2,1-f][1,2,4]triazin-7-yl)-5-cyano-4-hydroxy-2-((2-phenylacetoxy)methyl)tetrahydrofuran-3-yl 3-methylbutanoate]?
Papp A→B at 90 min [1]: 19 ×10⁻⁶ cm/s; Papp B→A at 90 min [2]: 31 ×10⁻⁶ cm/s; efflux ratio at 90 min [3]: 1.6

Which Papp A→B at 90 min (Caco-2) does the source give for CC(=O)N[C@H](C(=O)OC[C@H]1O[C@@](C#N)(c2ccc3c(N)ncnn23)[C@H](O)[C@@H]1OC(=O)CC1CCCCC1)C(C)(C)C [Compound 413, ((2R,3S,4R,5R)-5-(4-aminopyrrolo[2,1-f][1,2,4]triazin-7-yl)-5-cyano-3-(2-cyclohexylacetoxy)-4-hydroxytetrahydrofuran-2-yl)methyl (S)-2-acetamido-3,3-dimethylbutanoate] here?
The Papp A→B at 90 min was 4.3 ×10⁻⁶ cm/s.

What about the Papp B→A at 90 min (Caco-2) of the same molecule?
The Papp B→A at 90 min was 13.8 ×10⁻⁶ cm/s.

And the efflux ratio at 90 min (Caco-2)?
Its efflux ratio at 90 min is 3.2.

For CC(=O)OCOC(=O)OC[C@H]1O[C@@](C#N)(c2ccc3c(NC(=O)[C@@H](N)Cc4ccc(F)cc4)ncnn23)[C@H](O)[C@@H]1O [Compound 366, (((((2R,3S,4R,5R)-5-(4-((S)-2-amino-3-(4-fluorophenyl)propanamido)pyrrolo[2,1-f][1,2,4]triazin-7-yl)-5-cyano-3,4-dihydroxytetrahydrofuran-2-yl)methoxy)carbonyl)oxy)methyl acetate], which Papp A→B at 90 min (Caco-2) is on record?
Its Papp A→B at 90 min is 2.7 ×10⁻⁶ cm/s.

And the Papp B→A at 90 min (Caco-2)?
Its Papp B→A at 90 min is 1.1 ×10⁻⁶ cm/s.

And the efflux ratio at 90 min (Caco-2)?
Its efflux ratio at 90 min is 0.39.

Which results are given for CC(=O)OC[C@H]1O[C@@](C#N)(c2ccc3c(N)ncnn23)[C@H](O)[C@@H]1OC(=O)CC1CCCCC1 [Compound 50, (2R,3S,4R,5R)-2-(acetoxymethyl)-5-(4-aminopyrrolo[2,1-f][1,2,4]triazin-7-yl)-5-cyano-4-hydroxytetrahydrofuran-3-yl 2-cyclohexylacetate]?
Papp A→B at 90 min (Caco-2): 1.9 ×10⁻⁶ cm/s; Papp B→A at 90 min (Caco-2): 0.76 ×10⁻⁶ cm/s; efflux ratio at 90 min (Caco-2): 0.39

Which results are given for N#C[C@@]1(c2ccc3c(NC(=O)c4ccccc4)ncnn23)O[C@H](COC(=O)Cc2ccccc2)[C@@H](O)[C@H]1O [Compound 105, ((2R,3S,4R,5R)-5-(4-benzamidopyrrolo[2,1-f][1,2,4]triazin-7-yl)-5-cyano-3,4-dihydroxytetrahydrofuran-2-yl)methyl 2-phenylacetate]?
Papp A→B at 90 min [1]: 0.77 ×10⁻⁶ cm/s; Papp B→A at 90 min [2]: 1.4 ×10⁻⁶ cm/s; efflux ratio at 90 min [3]: 1.8

Which results are given for CC(C)[C@H](N)C(=O)Nc1ncnn2c([C@]3(C#N)O[C@H](CO)[C@@H](O)[C@H]3O)ccc12 [Compound 83, (2S)-2-amino-N-{7-[(2R,3R,4S,5R)-2-cyano-3,4-dihydroxy-5-(hydroxymethyl)oxolan-2-yl]pyrrolo[2,1-f][1,2,4]triazin-4-yl}-3-methylbutanamide]?
Papp A→B at 90 min (Caco-2): 0.07 ×10⁻⁶ cm/s; Papp B→A at 90 min (Caco-2): 0.2 ×10⁻⁶ cm/s; efflux ratio at 90 min (Caco-2): 3

Which Papp A→B at 90 min (Caco-2) does the source give for CNc1nc(N)nc2c1ncn2[C@@H]1O[C@H](COC(=O)C(C)C)[C@@H](OC(=O)CC(C)C)[C@@]1(C)F [Compound 187, (2R,3R,4R,5R)-5-(2-amino-6-(methylamino)-9H-purin-9-yl)-4-fluoro-2-((isobutyryloxy)methyl)-4-methyltetrahydrofuran-3-yl 3-methylbutanoate] here?
The Papp A→B at 90 min was 11 ×10⁻⁶ cm/s.

And the Papp B→A at 90 min (Caco-2)?
The Papp B→A at 90 min was 2.4 ×10⁻⁶ cm/s.

And the efflux ratio at 90 min (Caco-2)?
Its efflux ratio at 90 min is 0.22.

For CC(C)C(=O)OC[C@H]1O[C@@](C#N)(c2ccc3c(N)ncnn23)[C@H](O)[C@@H]1OC(=O)Cc1ccccc1 [Compound 60, ((2R,3S,4R,5R)-5-(4-aminopyrrolo[2,1-f][1,2,4]triazin-7-yl)-5-cyano-4-hydroxy-3-(2-phenylacetoxy)tetrahydrofuran-2-yl)methyl isobutyrate], which Papp A→B at 90 min [1] is on record?
The Papp A→B at 90 min was 2.8 ×10⁻⁶ cm/s.

And the Papp B→A at 90 min [2]?
The Papp B→A at 90 min was 1.7 ×10⁻⁶ cm/s.

What about the efflux ratio at 90 min [3] of the same molecule?
Its efflux ratio at 90 min is 0.58.

For CS(=O)(=O)N1CCC(CC(=O)OC[C@H]2O[C@@](C#N)(c3ccc4c(N)ncnn34)[C@H](O)[C@@H]2O)CC1 [Compound 268, ((2R,3S,4R,5R)-5-(4-aminopyrrolo[2,1-f][1,2,4]triazin-7-yl)-5-cyano-3,4-dihydroxytetrahydrofuran-2-yl)methyl 2-(1-(methylsulfonyl)piperidin-4-yl)acetate], which Papp A→B at 90 min (Caco-2) is on record?
The Papp A→B at 90 min was 0.04 ×10⁻⁶ cm/s.

And the Papp B→A at 90 min (Caco-2)?
Its Papp B→A at 90 min is 1.8 ×10⁻⁶ cm/s.

And the efflux ratio at 90 min (Caco-2)?
The efflux ratio at 90 min was 45.

What does the source list for CCCCCOC(=O)Nc1ncnn2c([C@]3(C#N)O[C@H](COC(=O)CC(C)C)[C@@H](O)[C@H]3O)ccc12 [Compound 93, ((2R,3S,4R,5R)-5-cyano-3,4-dihydroxy-5-(4-(((pentyloxy)carbonyl)amino)pyrrolo[2,1-f][1,2,4]triazin-7-yl)tetrahydrofuran-2-yl)methyl 3-methylbutanoate]?
Papp A→B at 90 min (Caco-2): 2.8 ×10⁻⁶ cm/s; Papp B→A at 90 min (Caco-2): 1.5 ×10⁻⁶ cm/s; efflux ratio at 90 min (Caco-2): 0.54

With CC(C)[C@H](N)C(=O)Nc1ncnn2c([C@]3(C#N)O[C@H](COC(=O)CC4CCCCC4)[C@@H](O)[C@H]3O)ccc12 [Compound 112, [(2R,3S,4R,5R)-5-{4-[(2S)-2-amino-3-methylbutanamido]pyrrolo[2,1-f][1,2,4]triazin-7-yl}-5-cyano-3,4-dihydroxyoxolan-2-yl]methyl 2-cyclohexylacetate] as the molecule, how does the Papp A→B at 90 min (Caco-2) read?
Its Papp A→B at 90 min is 0.14 ×10⁻⁶ cm/s.

What about the Papp B→A at 90 min (Caco-2) of the same molecule?
The Papp B→A at 90 min was 6.1 ×10⁻⁶ cm/s.

What about the efflux ratio at 90 min (Caco-2) of the same molecule?
Its efflux ratio at 90 min is 44.

Which results are given for CCC(=O)OC[C@H]1O[C@@](C#N)(c2ccc3c(N)ncnn23)[C@H](O)[C@@H]1O [Compound 15, ((2R,3S,4R,5R)-5-(4-aminopyrrolo[2,1-f][1,2,4]triazin-7-yl)-5-cyano-3,4-dihydroxytetrahydrofuran-2-yl)methyl propionate]?
Papp A→B at 90 min [1]: 2.9 ×10⁻⁶ cm/s; Papp B→A at 90 min [2]: 7 ×10⁻⁶ cm/s; efflux ratio at 90 min [3]: 3.4
